Assay results as given in patent publication US9896466B2 (Smart Brain S.R.O., priority 2013, dated 2018).

How the values were obtained:
mitochondrial potential = assay: Decrease in mitochondrial potential; format: cell-based; conditions: 5 μM, within 1 h
oestrogen receptor ERα = assay: ERα expression by real-time PCR; format: cell-based; conditions: 1 μM
[1] = system: MCF7 sublines differing in HER2 levels; assay: Formation of reactive oxygen species (ROS); format: cell-based, human; conditions: 5 μM, 1 h exposure
From the text: A property typically associated a number of mitocans is their ability to increase oxidative stress (formation of reactive oxygen species, ROS), selectively in cancer cells, especially associated with their action on mitochondrial complexes participating with oxidative phosphorylation. […] We tested formation of ROS also for MitoTAX.

MCF7HER2− = conditions: FIG. 4, survival, crystal violet
Experimental: MitoTAX prepared according to Example 6 was tested for its effect on breast cancer cell lines. Lines with different levels of HER2 protein expression and oestrogen receptor α. (ERα) were used. The cell line MCF7 features a relatively low expression of the HER2 protein. For the testing of killing of breast cancer cells with different HER2 protein levels by MitoTAX, we prepared HER2^− and HER^+ MCF7 cells. MCF7 cells were transfected with the vector with a ‘non-silencing’ sequence (NS), with a ‘short hairpin’ sequence attenuating the expression of HER2 (sh) and with the vector with a gene for HER2. […] In the subsequent work, the sublines NS, Sh1 26 (clone 26) and +11 (clone 11) were used.
The individual values were determined from the survival curves of cells at various concentrations of both substances using the crystal violet method.

mitochondrial complex I = assay: Respiration via mitochondrial complexes I and II, Oxygraf; format: cell-based, human; conditions: MCF7 cells, respiration at increasing doses
From the text: Respiration (oxygen consumption linked with ATP formation) is related to 10^6 cells and is shown as a relative value with the beginning level of respiration marked with the relative value of 1.

| SMILES | reduction of mitochondrial potential (mitochondrial potential) | reduction of ERα expression (oestrogen receptor ERα) | generation of ROS [1] | response of line with reduced HER2 expression (clone 26) (MCF7HER2−) | concentration at which complex I is inhibited preferably to complex II (mitochondrial complex I) |
| --- | --- | --- | --- | --- | --- |
| N#CC(C#N)=NNc1cccc(Cl)c1 [CCCP] | reduces the mitochondrial potential to its basal value |  |  |  |  |
| CC/C(=C(\c1ccccc1)c1ccc(OCCN(C)C)cc1)c1ccccc1 [TAX, tamoxifen] |  | ineffective | markedly less effective | exactly opposite | exceeding 20 μM |
